Experiment: Stability studies of amorphous zafirlukast under storage/stress conditions (XRD)
Format: physicochemical
Excerpt: A sample of amorphous zafirlukast prepared using the above process was subjected to different conditions to determine the stability of the mixture under stress conditions.
The sample was packed in a clear polyethylene bag, tied with a tag, placed in a black polyethylene bag along with a silica pouch, which was filled with nitrogen, then sealed in a triple laminated bag, and finally sealed and stored in an HDPE drum.

Solid-form stability (XRD spectra) after storage (Long-term storage for 3 months, packed in polyethylene bags with silica pouch under nitrogen, triple laminated bag, HDPE drum): No change in XRD spectra
Solid-form stability (XRD spectra) after storage (Storage at 25 + 5 C. and 60 + 5% RH, same packing): No change in XRD spectra
Solid-form stability (XRD spectra) after storage (Storage at 40 + 5 C. and 70 + 5% RH, same packing): No change in XRD spectra
Substance: 4-(5-cyclopentyloxy-carbonylamino-1-methyl-indol-3-ylmethyl)-3-methoxy-N-O-tolylsulfonylbenzamide [Amorphous form]

From patent publication US20090149662A1, “PROCESSES FOR PREPARING ZAFIRLUKAST” (priority 2007, published 2009)
